Measured values published in US20160304556A1, “[…] ACTIVE COMPOUNDS AND THEIR METHODS OF USE” (AGIOS PHARMACEUTICALS, INC, priority 2012, published 2016).
pIC50: −log10 of the molar value.

Tests used:
IDH1 R132C = IDH1 R132C (Homo sapiens, UniProt O75874, R132C); assay: In vitro NADPH depletion assay for IDH1m R132C inhibitors; type: biochemical; details: enzyme, diaphorase/resazurin readout, read-out: IDH R132C IC50
Description: (§1) A test compound is prepared as 10 mM stock in DMSO and diluted to 50× final concentration in DMSO, for a 50 μl reaction mixture. IDH enzyme activity converting alpha-ketoglutarate to 2-hydroxyglutaric acid is measured using a NADPH depletion assay. In the assay the remaining cofactor is measured at the end of the reaction with the addition of a catalytic excess of diaphorase and resazurin, to generate a fluorescent signal in proportion to the amount of NADPH remaining. IDH1-R132 homodimer enzyme is diluted to […] in 40 μl of Assay Buffer(150 mM NaCl, 20 mM Tris-Cl pH 7.5, 10 mM MgCl2, 0.05% BSA, 2 mM b-mercaptoethanol); 1 μl of test compound dilution in DMSO is added and the mixture is incubated for 60 minutes at room temperature. The reaction is started with the addition of 10 μl of Substrate Mix ([…], 5 mM alpha-ketoglutarate, in Assay Buffer) and the mixture is incubated for 90 minutes at room temperature. The reaction is terminated with the addition of 25 μl of Detection Buffer (36 μg/ml diaphorase, […], in 1× Assay Buffer), and is incubated for 1 minute before reading on a SpectraMax platereader at Ex544/Em590.
Compounds are assayed for their activity against IDH1 R132C following the same assay as above with the following modifications: Assay Buffer is (50 mM potassium phosphate, pH 6.5; 40 mM sodium carbonate, 5 mM MgCl2, 10% glycerol, 2 mM b-mercaptoethanol, and 0.03% BSA). The concentration of NADPH and alpha-ketoglutarate in the Substrate Buffer is 20 μM and 1 mM, respectively.
(§2) Representative compounds of formula I set forth in Table 1 were tested in this assay and the results are set forth below in Table 3.

IDH1 R132H = IDH1 R132H (Homo sapiens, UniProt O75874, R132H); assay: In vitro NADPH depletion assay for IDH1m R132H inhibitors; type: biochemical; details: enzyme, diaphorase/resazurin readout, read-out: IDH R132H IC50
Description: as §1, §2

HT1080 cells = assay: Cellular assay, inhibition of 2-HG production (LC-MS) in HT1080 cells; type: cell-based; details: Homo sapiens, HT-1080, 48 hours, LC-MS of media
Description: Cells (HT1080 or U87MG) are grown in T125 flasks in DMEM containing 10% FBS, 1× penicillin/streptomycin and 500 ug/mL G418 (present in U87MG cells only). They are harvested by trypsin and seeded into 96 well white bottom plates at a density of 5000 cell/well in 100 μl/well in DMEM with 10% FBS. No cells are placed in columns 1 and 12. Cells are incubated overnight at 37° C. in 5% CO2. The next day test compounds are made up at 2× the final concentration and 100 μl are added to each cell well. The final concentration of DMSO is 0.2% and the DMSO control wells are plated in row G. The plates are then placed in the incubator for 48 hours. At 48 hours, 100 μl of media is removed from each well and analyzed by LC-MS for 2-HG concentrations. The cell plate is placed back in the incubator for another 24 hours. At 72 hours post compound addition, 10 mL/plate of Promega Cell Titer Glo reagent is thawed and mixed. The cell plate is removed from the incubator and allowed to equilibrate to room temperature. Then 100 μl of Promega Cell Titer Glo reagent is added to each well of media. The cell plate is then placed on an orbital shaker for 10 minutes and then allowed to sit at room temperature for 20 minutes. The plate is then read for luminescence with an integration time of 500 ms.
The IC50 for inhibition of 2-HG production (concentration of test compound to reduce 2HG production by 50% compared to control) in these two cell lines for various compounds of formula I is set forth in Table 2 above.

Sequence of IDH1 R132C (O75874 whole entry R132C): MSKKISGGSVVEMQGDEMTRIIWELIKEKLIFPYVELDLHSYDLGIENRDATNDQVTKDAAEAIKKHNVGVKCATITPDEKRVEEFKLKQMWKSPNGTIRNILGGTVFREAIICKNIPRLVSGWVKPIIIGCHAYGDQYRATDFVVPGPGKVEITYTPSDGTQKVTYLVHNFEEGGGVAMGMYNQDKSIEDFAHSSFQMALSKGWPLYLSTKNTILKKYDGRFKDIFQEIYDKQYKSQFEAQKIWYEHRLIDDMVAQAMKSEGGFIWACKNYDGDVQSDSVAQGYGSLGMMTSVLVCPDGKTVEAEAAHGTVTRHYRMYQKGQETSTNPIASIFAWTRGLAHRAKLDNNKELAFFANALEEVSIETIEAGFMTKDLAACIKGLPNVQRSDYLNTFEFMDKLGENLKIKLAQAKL
Sequence of IDH1 R132H (O75874 whole entry R132H): as the sequence (O75874 whole entry R132C) above, with C132H counted along it

SMILES	pIC50 (IDH1 R132C)	pIC50 (IDH1 R132H)	pIC50 (HT1080 cells)
O=C(NC1CC(F)(F)C1)[C@@H](c1ccccc1Cl)N(C(=O)[C@@H]1CCN1c1ccccn1)c1cccc(F)c1 (stereo in doubt) [Compound 105]	≥ 7.00	6.30 to 7.00	6.30 to 7.00
Cc1nc(Cl)c(Cl)n1CC(=O)N(c1cccc(F)c1)C(C(=O)NC1CC(F)(F)C1)c1ccccc1Cl (stereo not drawn) [Compound 87]	≥ 7.00	≥ 7.00	6.30 to 7.00
O=C(NC1CC(F)(F)C1)[C@H](c1ccccc1Cl)N(C(=O)[C@@H]1CCN1c1ncccn1)c1cccc(F)c1 (stereo in doubt) [Compound 102]	≥ 7.00	6.30 to 7.00	6.30 to 7.00
COC(=O)N1C[C@H](OCCO)C[C@H]1C(=O)N(c1cccc(F)c1)[C@H](C(=O)NC1CC(F)(F)C1)c1ccccc1Cl [Compound 90]	≥ 7.00	≥ 7.00	6.30 to 7.00
O=C(NC1CC(F)(F)C1)[C@@H](c1ccccc1Cl)N(C(=O)[C@H](CO)Nc1ncccn1)c1cccc(F)c1 [Compound 108]	≥ 7.00	6.30 to 7.00	6.30 to 7.00
O=C(NC1CC(F)(F)C1)[C@H](c1ccccc1Cl)N(C(=O)[C@H](CO)Nc1ncccn1)c1cccc(F)c1 [Compound 109]	≥ 7.00	≥ 7.00	≥ 7.00
COC(=O)N[C@@H](CO)C(=O)N(c1cccc(F)c1)[C@@H](C(=O)NC1CCCCC1)c1ccccc1Cl [Compound 85]	6.30 to 7.00	≥ 7.00	6.00 to 6.30
O=C(NC1CC(F)(F)C1)[C@H](c1ccccc1Cl)N(C(=O)[C@@H]1CCCN1c1ncccn1)c1cccc(F)c1 [Compound 69, (2S)—N—((S)-(3,3-difluorocyclobutylcarbamoyl)(2-chlorophenyl)methyl)-N-(3-fluorophenyl)-1-(pyrimidin-2-yl)pyrrolidine-2-carboxamide]	≥ 7.00	≥ 7.00	≥ 7.00
COC(=O)NCC(=O)N(c1cccc(F)c1)[C@H](C(=O)N[C@@H]1CCC(F)(F)C1)c1ccccc1Cl [Compound 98]	6.30 to 7.00	6.30 to 7.00	5.70 to 6.00
COCCO[C@@H]1C[C@@H](C(=O)N(c2cccc(F)c2)[C@H](C(=O)NC2CC(F)(F)C2)c2ccccc2Cl)N(C(=O)OC)C1 [Compound 79, (2S,4R)-methyl 2-(((S)-1-(2-chlorophenyl)-2-((3,3-difluoro-cyclobutyl)amino)-2-oxoethyl)(3-fluorophenyl)carbamoyl)-4-(2-methoxyethoxy)pyrrolidine-1-carboxylate]	≥ 7.00	≥ 7.00	≥ 7.00
COC(=O)N1CCC[C@H]1C(=O)N(c1cccc(F)c1)[C@H](C(=O)NC1CC(F)(F)C1)c1c(Cl)cccc1Cl [Compound 66]	6.30 to 7.00	6.30 to 7.00	6.30 to 7.00
COC(=O)NCC(=O)N(c1cccc(F)c1)[C@H](C(=O)N[C@@H]1CCCCC1(F)F)c1ccccc1Cl [Compound 83]	6.30 to 7.00	6.30 to 7.00	6.00 to 6.30
C[C@H]1CC[C@@H](C(=O)N(c2cccc(F)c2)[C@@H](C(=O)NC2CC(F)(F)C2)c2ccccc2Cl)N1c1ncccn1 [Compound 112, (2S,5S)—N—((R)-1-(2-chlorophenyl)-2-(3,3-difluorocyclobutylamino)-2-oxoethyl)-N-(3-fluorophenyl)-5-methyl-1-(pyrimidin-2-yl)pyrrolidine-2-carboxamide]	≥ 7.00	6.30 to 7.00	6.30 to 7.00
O=C(NC1CC(F)(F)C1)C(c1ccccc1Cl)N(C(=O)Cn1cnc(Cl)c1Cl)c1cccc(F)c1 (stereo not drawn) [Compound 35]	≥ 7.00	≥ 7.00	6.30 to 7.00
